Data as given in patent US12559490B2, “Compositions and methods for modulating hair growth” (The Regents of the University of California, priority 2020, dated 2026).

Experiments:
[1] = Solubility testing in a polyethylene glycol/transcutol/ethanol/DMSO formulation; assay type: physicochemical; settings: for Conc.: concentration tested in formulation of about 25-75% polyethylene glycol, 5-20% transcutol, 5-50% ethanol, 5-10% DMSO, room temperature, Notes column says whether it dissolved; for Notes (dissolved / failed to dissolve): stirred 1 hour, overnight or 24 hours at room temperature
From the text: Results are detailed in the table below.

[2] = molecular target: T1, Mitochondrial Pyruvate Carrier (MPC) (Homo sapiens, UniProt O95563+Q9Y5U8); test: Pyruvate-driven respiration (OCR, XF96) in permeabilized HepG2 cells to test MPC; assay type: cell-based; settings: pyruvate/malate substrate, nine-point dose-response, 1 or 3 replicates
T1 sequence (Q9Y5U8 1-109): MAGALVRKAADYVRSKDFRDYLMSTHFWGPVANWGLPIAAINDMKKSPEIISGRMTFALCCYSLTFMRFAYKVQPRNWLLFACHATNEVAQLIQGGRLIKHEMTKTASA
T1 sequence (O95563 1-127): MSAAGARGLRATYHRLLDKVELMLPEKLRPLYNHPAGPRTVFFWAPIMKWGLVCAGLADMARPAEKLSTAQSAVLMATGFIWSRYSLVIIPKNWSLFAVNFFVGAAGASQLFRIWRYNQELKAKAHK

Structure (SMILES)	Conc. [1]	IC50 [2]	Notes (dissolved / failed to dissolve) [1]
N#C/C(=C\c1cn(Cc2ccccc2F)c2ncccc12)C(=O)O [PP35, (E)-2-cyano-3-(1-(2-fluorobenzyl)-1H-pyrrolo[2,3-b]pyridin-3-yl)acrylic acid]	0.1% w/w	34 nM	
N#C/C(=C\c1cn(Cc2ccncc2)c2ncccc12)C(=O)O [PP40, Sodium (E)-2-cyano-3-(1-(pyridin-4-ylmethyl)-1H-pyrrolo[2,3-b]pyridin-3-yl)acrylate]		411 nM	
N#C/C(=C\c1cn(Cc2cccc(C(F)(F)F)c2)c2ncccc12)C(=O)O [PP27, (E)-2-Cyano-3-(1-(3-(trifluoromethyl)benzyl)-1H-pyrrolo[2,3-b]pyridin-3-yl) acrylic acid]	0.15% w/w	36.3 nM	Stirred 1 hour at room temperature; dissolved
N#C/C(=C\c1cn(Cc2cc(C(F)(F)F)cc(C(F)(F)F)c2)c2ncccc12)C(=O)O [JXL069, reference compound]	0.027% w/w	51.2 nM	Stirred overnight at room temperature; dissolved
N#C/C(=C\c1cn(Cc2cccc(F)c2)c2ncccc12)C(=O)O [PP36, (E)-2-cyano-3-(1-(3-fluorobenzyl)-1H-pyrrolo[2,3-b]pyridin-3-yl)acrylic acid]	0.1% w/w	26 nM	
N#C/C(=C\c1cn(Cc2cccnc2)c2ncccc12)C(=O)O [PP39, Sodium (E)-2-cyano-3-(1-(pyridin-3-ylmethyl)-1H-pyrrolo[2,3-b]pyridin-3-yl)acrylate]		262 nM	
N#C/C(=C\c1cn(Cc2ccccc2C(F)(F)F)c2ncccc12)C(=O)O [PP26, (E)-2-Cyano-3-(1-(2-(trifluoromethyl)benzyl)-1H-pyrrolo[2,3-b]pyridin-3-yl) acrylic acid]	0.1% w/w	54 nM	Stirred 1 hour at room temperature; dissolved
N#C/C(=C\c1cn(Cc2ccc(F)cc2)c2ncccc12)C(=O)O [PP37, (E)-2-cyano-3-(1-(4-fluorobenzyl)-1H-pyrrolo[2,3-b]pyridin-3-yl)acrylic acid]		109 nM	
N#C/C(=C\c1cn(Cc2ccccn2)c2ncccc12)C(=O)O [PP38, Sodium (E)-2-cyano-3-(1-(pyridin-2-ylmethyl)-1H-pyrrolo[2,3-b]pyridin-3-yl)acrylate]		183 nM	
